In ChEMBL document CHEMBL1147777, “Synthesis and antibacterial activity of substituted 1,2,3,4-tetrahydropyrazino [1,2-a] indoles” (2006) one finds MIC and Activity data, which are given here for 19 compounds.

Active and inactive are the calls of the source. No cut-off for these calls is given here.

The first experiment concerns Escherichia coli. The experiment can be described thus: MIC per disc against Escherichia coli by disc diffusion method. The format is functional.
Details: not given
(In agar diffusion tests the substance spreads into inoculated agar from a disc or well.)
As for `COc1cccc(C2NCCn3c2c(C)c2ccccc23)c1` (stereo not drawn), the MIC amounted to 30 µg.

Regarding `Cc1ccc(CN2CCn3c(c(C)c4ccccc43)C2)cc1`, the MIC result is “inactive”.

For `Cc1c2n(c3ccccc13)CCNC2c1ccc(Br)cc1` (stereo not drawn), the MIC entry was “inactive”.

`Cc1c2n(c3ccccc13)CCNC2c1cccs1` (stereo not drawn): the MIC result was “inactive”.

With `Cc1ccc(C2NCCn3c2c(C)c2ccccc23)cc1` (stereo not drawn), the MIC stood at 15 µg.

As for `Cc1c2n(c3ccccc13)CCNC2c1ccccc1` (stereo not drawn), the MIC entry was “inactive”.

With `Cc1c2n(c3ccccc13)CCN(Cn1nnc3ccccc31)C2`, the MIC result was “inactive”.

For `Cc1cn2c(cc3ccccc32)c(-c2ccccc2)n1`, the MIC worked out at 60 µg.

With GENTAMICIN, the MIC came to 1 µg.

`Cc1c2n(c3ccccc13)CCN(Cc1ccccc1)C2`: the MIC entry was “inactive”.

Consider `C[C@H]1c2cccc(O)c2C(=O)C2=C(O)[C@]3(O)C(=O)C(C(N)=O)=C(O)[C@@H](N(C)C)[C@@H]3[C@@H](O)[C@@H]21.Cl` [DOXYCYCLINE HYDROCHLORIDE], for which the MIC amounted to 2 µg.

`Cc1c2n(c3ccccc13)CCN(CC#N)C2`: the MIC result was “inactive”.

As for `Cc1cn2c(cc3ccccc32)c(C)n1`, the MIC stood at 60 µg.

For `CCOP(=O)(CN1CCn2c(c(C)c3ccccc32)C1)OCC`, the MIC entry was “inactive”.

The compound `Cc1c2n(c3ccccc13)CCNC2c1ccc([N+](=O)[O-])cc1` (stereo not drawn) had an MIC of 30 µg.

`Cc1c2n(c3ccccc13)CCNC2c1ccccn1` (stereo not drawn): the MIC entry was “inactive”.

Regarding `Cc1c2n(c3ccccc13)CCN(C)C2`, the MIC entry is “inactive”.

`Cc1c2n(c3ccccc13)CCNC2c1cccc(Cl)c1` (stereo not drawn): the MIC entry was “inactive”.

Consider `Cc1c2n(c3ccccc13)CCNC2c1ccc(F)cc1` (stereo not drawn), for which the MIC came out at 15 µg.

A further experiment relates to Streptomyces thermovulgaris. The experiment in a line: MIC per disc against Streptomyces thermonitrificans by disc diffusion method. The format is functional.
Details: not given
Consider `COc1cccc(C2NCCn3c2c(C)c2ccccc23)c1` (stereo not drawn), for which the MIC worked out at 15 µg.

`Cc1ccc(CN2CCn3c(c(C)c4ccccc43)C2)cc1`: the MIC worked out at 60 µg.

With `Cc1c2n(c3ccccc13)CCNC2c1ccc(Br)cc1` (stereo not drawn), the MIC amounted to 15 µg.

With `Cc1c2n(c3ccccc13)CCNC2c1cccs1` (stereo not drawn), the MIC result is “inactive”.

In turn, `Cc1ccc(C2NCCn3c2c(C)c2ccccc23)cc1` (stereo not drawn) yielded an MIC of 30 µg.

As for `Cc1c2n(c3ccccc13)CCNC2c1ccccc1` (stereo not drawn), the MIC result was “inactive”.

Take `Cc1c2n(c3ccccc13)CCN(Cn1nnc3ccccc31)C2`: the MIC entry is “inactive”.

`Cc1cn2c(cc3ccccc32)c(-c2ccccc2)n1` displayed an MIC of 60 µg.

As to GENTAMICIN, the MIC was determined as 1 µg.

The compound `Cc1c2n(c3ccccc13)CCN(Cc1ccccc1)C2` yielded an MIC of 60 µg.

Turning to `C[C@H]1c2cccc(O)c2C(=O)C2=C(O)[C@]3(O)C(=O)C(C(N)=O)=C(O)[C@@H](N(C)C)[C@@H]3[C@@H](O)[C@@H]21.Cl` [DOXYCYCLINE HYDROCHLORIDE], the MIC was 1 µg.

In turn, `Cc1c2n(c3ccccc13)CCN(CC#N)C2` came in with an MIC of 30 µg.

`Cc1cn2c(cc3ccccc32)c(C)n1`: the MIC was 60 µg.

Compound `CCOP(=O)(CN1CCn2c(c(C)c3ccccc32)C1)OCC` yielded an MIC of 60 µg.

As to `Cc1c2n(c3ccccc13)CCNC2c1ccc([N+](=O)[O-])cc1` (stereo not drawn), the MIC turned out to be 15 µg.

For the compound `Cc1c2n(c3ccccc13)CCNC2c1ccccn1` (stereo not drawn), the MIC entry is “inactive”.

On to `Cc1c2n(c3ccccc13)CCN(C)C2`, for which the MIC came to 30 µg.

`Cc1c2n(c3ccccc13)CCNC2c1cccc(Cl)c1` (stereo not drawn) gave an MIC of 3.75 µg.

Turning to `Cc1c2n(c3ccccc13)CCNC2c1ccc(F)cc1` (stereo not drawn), the MIC came to 7.5 µg.

Another experiment relates to Staphylococcus aureus. The experiment in a line: MIC per disc in Staphylococcus aureus by disc diffusion method. The format is functional.
Details: not given
`COc1cccc(C2NCCn3c2c(C)c2ccccc23)c1` (stereo not drawn): the MIC stood at 60 µg.

In turn, `Cc1ccc(CN2CCn3c(c(C)c4ccccc43)C2)cc1` gave an MIC of 15 µg.

In turn, `Cc1c2n(c3ccccc13)CCNC2c1ccc(Br)cc1` (stereo not drawn) showed an MIC of 15 µg.

For the compound `Cc1c2n(c3ccccc13)CCNC2c1cccs1` (stereo not drawn), the MIC was 60 µg.

Compound `Cc1ccc(C2NCCn3c2c(C)c2ccccc23)cc1` (stereo not drawn) came in with an MIC of 30 µg.

As for `Cc1c2n(c3ccccc13)CCNC2c1ccccc1` (stereo not drawn), the MIC entry was “inactive”.

On to `Cc1c2n(c3ccccc13)CCN(Cn1nnc3ccccc31)C2`, for which the MIC was found to be 30 µg.

`Cc1cn2c(cc3ccccc32)c(-c2ccccc2)n1` registered an MIC of 60 µg.

In turn, GENTAMICIN came in with an MIC of 1 µg.

In turn, `Cc1c2n(c3ccccc13)CCN(Cc1ccccc1)C2` returned an MIC of 15 µg.

In turn, `C[C@H]1c2cccc(O)c2C(=O)C2=C(O)[C@]3(O)C(=O)C(C(N)=O)=C(O)[C@@H](N(C)C)[C@@H]3[C@@H](O)[C@@H]21.Cl` [DOXYCYCLINE HYDROCHLORIDE] yielded an MIC of 1 µg.

The compound `Cc1c2n(c3ccccc13)CCN(CC#N)C2` had an MIC of 15 µg.

Regarding `Cc1cn2c(cc3ccccc32)c(C)n1`, the MIC is 60 µg.

On to `CCOP(=O)(CN1CCn2c(c(C)c3ccccc32)C1)OCC`, for which the MIC entry is “inactive”.

Turning to `Cc1c2n(c3ccccc13)CCNC2c1ccc([N+](=O)[O-])cc1` (stereo not drawn), the MIC turned out to be 30 µg.

For the compound `Cc1c2n(c3ccccc13)CCNC2c1ccccn1` (stereo not drawn), the MIC was 3.75 µg.

As to `Cc1c2n(c3ccccc13)CCN(C)C2`, the MIC amounted to 30 µg.

On to `Cc1c2n(c3ccccc13)CCNC2c1cccc(Cl)c1` (stereo not drawn), for which the MIC result is “inactive”.

In the case of `Cc1c2n(c3ccccc13)CCNC2c1ccc(F)cc1` (stereo not drawn), the MIC stood at 30 µg.

Another experiment concerns Pseudomonas aeruginosa. The experiment can be described thus: MIC per disc against Pseudomonas aeruginosa by disc diffusion method.
Details: not given
The format is functional.
On to `COc1cccc(C2NCCn3c2c(C)c2ccccc23)c1` (stereo not drawn), for which the MIC result is “inactive”.

With `Cc1ccc(CN2CCn3c(c(C)c4ccccc43)C2)cc1`, the MIC was found to be 60 µg.

On to `Cc1c2n(c3ccccc13)CCNC2c1ccc(Br)cc1` (stereo not drawn), for which the MIC was 60 µg.

Turning to `Cc1c2n(c3ccccc13)CCNC2c1cccs1` (stereo not drawn), the MIC result was “inactive”.

In turn, `Cc1ccc(C2NCCn3c2c(C)c2ccccc23)cc1` (stereo not drawn) displayed an MIC of 60 µg.

`Cc1c2n(c3ccccc13)CCNC2c1ccccc1` (stereo not drawn) had an MIC of 3.75 µg.

Turning to `Cc1c2n(c3ccccc13)CCN(Cn1nnc3ccccc31)C2`, the MIC entry was “inactive”.

Regarding `Cc1cn2c(cc3ccccc32)c(-c2ccccc2)n1`, the MIC worked out at 60 µg.

GENTAMICIN returned an MIC of 0.5 µg.

In turn, `Cc1c2n(c3ccccc13)CCN(Cc1ccccc1)C2` came in with an MIC of 60 µg.

`C[C@H]1c2cccc(O)c2C(=O)C2=C(O)[C@]3(O)C(=O)C(C(N)=O)=C(O)[C@@H](N(C)C)[C@@H]3[C@@H](O)[C@@H]21.Cl` [DOXYCYCLINE HYDROCHLORIDE] returned an MIC of 1 µg.

As for `Cc1c2n(c3ccccc13)CCN(CC#N)C2`, the MIC worked out at 60 µg.

For `Cc1cn2c(cc3ccccc32)c(C)n1`, the MIC is 60 µg.

In turn, `CCOP(=O)(CN1CCn2c(c(C)c3ccccc32)C1)OCC` came in with an MIC of 60 µg.

Consider `Cc1c2n(c3ccccc13)CCNC2c1ccc([N+](=O)[O-])cc1` (stereo not drawn), for which the MIC was 30 µg.

For the compound `Cc1c2n(c3ccccc13)CCNC2c1ccccn1` (stereo not drawn), the MIC entry was “inactive”.

Compound `Cc1c2n(c3ccccc13)CCN(C)C2` returned an MIC of 30 µg.

`Cc1c2n(c3ccccc13)CCNC2c1cccc(Cl)c1` (stereo not drawn) showed an MIC of 15 µg.

In turn, `Cc1c2n(c3ccccc13)CCNC2c1ccc(F)cc1` (stereo not drawn) yielded an MIC of 30 µg.

A further experiment concerns Salmonella typhi. The experiment in a line: MIC per disc against Salmonella typhi by disc diffusion method. It counts as functional, Salmonella enterica subsp. enterica serovar Typhi.
Details: not given
Compound `COc1cccc(C2NCCn3c2c(C)c2ccccc23)c1` (stereo not drawn) yielded an MIC of 30 µg.

`Cc1ccc(CN2CCn3c(c(C)c4ccccc43)C2)cc1` displayed an MIC of 30 µg.

In turn, `Cc1c2n(c3ccccc13)CCNC2c1ccc(Br)cc1` (stereo not drawn) yielded an MIC of 60 µg.

With `Cc1c2n(c3ccccc13)CCNC2c1cccs1` (stereo not drawn), the MIC was determined as 30 µg.

`Cc1ccc(C2NCCn3c2c(C)c2ccccc23)cc1` (stereo not drawn) showed an MIC of 15 µg.

Regarding `Cc1c2n(c3ccccc13)CCN(Cn1nnc3ccccc31)C2`, the MIC was found to be 60 µg.

Regarding `Cc1cn2c(cc3ccccc32)c(-c2ccccc2)n1`, the MIC was determined as 60 µg.

As for `Cc1c2n(c3ccccc13)CCN(Cc1ccccc1)C2`, the MIC turned out to be 60 µg.

As to `C[C@H]1c2cccc(O)c2C(=O)C2=C(O)[C@]3(O)C(=O)C(C(N)=O)=C(O)[C@@H](N(C)C)[C@@H]3[C@@H](O)[C@@H]21.Cl` [DOXYCYCLINE HYDROCHLORIDE], the MIC came to 1 µg.

`Cc1c2n(c3ccccc13)CCN(CC#N)C2` returned an MIC of 30 µg.

On to `Cc1cn2c(cc3ccccc32)c(C)n1`, for which the MIC was 60 µg.

With `Cc1c2n(c3ccccc13)CCNC2c1ccc([N+](=O)[O-])cc1` (stereo not drawn), the MIC was 30 µg.

For the compound `Cc1c2n(c3ccccc13)CCN(C)C2`, the MIC was 30 µg.

In turn, `Cc1c2n(c3ccccc13)CCNC2c1ccc(F)cc1` (stereo not drawn) returned an MIC of 30 µg.

Still in this experiment, the particulars now being: Salmonella enterica subsp. enterica serovar Typhi.
As for `Cc1c2n(c3ccccc13)CCNC2c1ccccc1` (stereo not drawn), the MIC result is “inactive”.

With GENTAMICIN, the MIC came out at 1 µg.

For `CCOP(=O)(CN1CCn2c(c(C)c3ccccc32)C1)OCC`, the MIC result is “inactive”.

Consider `Cc1c2n(c3ccccc13)CCNC2c1ccccn1` (stereo not drawn), for which the MIC result is “inactive”.

For the compound `Cc1c2n(c3ccccc13)CCNC2c1cccc(Cl)c1` (stereo not drawn), the MIC entry was “inactive”.

Another experiment has as its system RBCs. The experiment in a line: Cytotoxicity against erythrocytes by haemolytic assay at upto 500 ug/ml.
Details: not given
The format is functional, Erythrocyte.
In turn, `Cc1ccc(C2NCCn3c2c(C)c2ccccc23)cc1` (stereo not drawn) displayed an Activity of 5%.

On to `Cc1c2n(c3ccccc13)CCNC2c1ccc([N+](=O)[O-])cc1` (stereo not drawn), for which the Activity was 5%.

Regarding `Cc1c2n(c3ccccc13)CCNC2c1ccc(F)cc1` (stereo not drawn), the Activity amounted to 5%.
